# Measurements as given in ChEMBL document CHEMBL5579824, “Novel Hsp90-Targeting PROTACs: Enhanced synergy with cisplatin in combination therapy of cervical cancer” (Eur J Med Chem, 2024).
# Active and inactive are the calls of the source. No cut-off for these calls is given here.
# Key:
# [1] = biological target: Serine/threonine-protein kinase AKT (Homo sapiens) (UniProt P31751+Q9Y243+P31749); experiment: Inhibition of AKT phosphorylation in human SiHa cells incubated for 10 hrs by Western blot analysis; format: cell-based; conditions: dose 0.01-1 µM
# Serine/threonine-protein kinase AKT (Homo sapiens), sequence (P31749 whole entry, looked up): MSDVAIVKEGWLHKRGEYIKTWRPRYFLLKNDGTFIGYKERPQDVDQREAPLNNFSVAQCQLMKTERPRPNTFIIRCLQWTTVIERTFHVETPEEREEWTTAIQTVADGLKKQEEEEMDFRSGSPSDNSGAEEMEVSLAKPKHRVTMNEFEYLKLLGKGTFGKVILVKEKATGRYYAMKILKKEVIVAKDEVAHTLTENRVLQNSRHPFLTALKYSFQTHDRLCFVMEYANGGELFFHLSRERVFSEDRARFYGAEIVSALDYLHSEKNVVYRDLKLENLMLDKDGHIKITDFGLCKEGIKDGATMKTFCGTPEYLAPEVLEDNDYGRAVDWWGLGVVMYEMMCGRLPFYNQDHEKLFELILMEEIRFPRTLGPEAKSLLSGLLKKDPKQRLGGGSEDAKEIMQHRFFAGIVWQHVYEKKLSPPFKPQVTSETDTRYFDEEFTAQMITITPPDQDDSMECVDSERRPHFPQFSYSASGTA
# Serine/threonine-protein kinase AKT (Homo sapiens), sequence (P31751 whole entry, looked up): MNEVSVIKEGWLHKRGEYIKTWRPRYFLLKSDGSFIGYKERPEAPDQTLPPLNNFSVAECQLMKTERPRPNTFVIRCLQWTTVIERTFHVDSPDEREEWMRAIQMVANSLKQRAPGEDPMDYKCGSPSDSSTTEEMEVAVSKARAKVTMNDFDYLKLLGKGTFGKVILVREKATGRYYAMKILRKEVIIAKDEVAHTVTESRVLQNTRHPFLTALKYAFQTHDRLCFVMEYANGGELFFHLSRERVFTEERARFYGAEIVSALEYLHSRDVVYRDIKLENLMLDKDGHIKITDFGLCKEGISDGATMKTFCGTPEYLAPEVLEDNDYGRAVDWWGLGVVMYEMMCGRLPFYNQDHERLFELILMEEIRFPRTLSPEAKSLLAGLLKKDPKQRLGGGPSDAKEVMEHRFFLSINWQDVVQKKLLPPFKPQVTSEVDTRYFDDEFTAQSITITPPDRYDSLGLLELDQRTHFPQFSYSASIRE
# Serine/threonine-protein kinase AKT (Homo sapiens), sequence (Q9Y243 whole entry, looked up): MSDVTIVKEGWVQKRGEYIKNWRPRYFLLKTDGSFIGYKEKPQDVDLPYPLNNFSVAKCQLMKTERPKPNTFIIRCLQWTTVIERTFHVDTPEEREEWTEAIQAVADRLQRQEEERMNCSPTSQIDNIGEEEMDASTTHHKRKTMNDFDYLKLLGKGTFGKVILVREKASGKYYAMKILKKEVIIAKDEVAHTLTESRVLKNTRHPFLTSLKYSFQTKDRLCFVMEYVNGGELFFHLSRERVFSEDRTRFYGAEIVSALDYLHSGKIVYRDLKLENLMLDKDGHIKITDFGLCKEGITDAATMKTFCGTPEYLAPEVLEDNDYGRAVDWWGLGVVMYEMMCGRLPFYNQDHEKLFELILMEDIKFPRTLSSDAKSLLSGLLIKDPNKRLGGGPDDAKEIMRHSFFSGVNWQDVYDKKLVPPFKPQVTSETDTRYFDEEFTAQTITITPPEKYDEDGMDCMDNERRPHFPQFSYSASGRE
# SiHa [2] = experiment: Synergistic antiproliferative activity against human SiHa cells assessed as combination index at 5 uM incubated for 72 hrs in presence of 0.01 uM cisplatin by CCK-8 assay; format: functional
# SiHa [3] = experiment: Synergistic antiproliferative activity against human SiHa cells assessed as combination index at 10 uM incubated for 72 hrs in presence of 0.1 uM cisplatin by CCK-8 assay; format: functional
# SiHa [4] = experiment: Synergistic antiproliferative activity against human SiHa cells assessed as combination index at 5 uM incubated for 72 hrs in presence of 0.32 uM cisplatin by CCK-8 assay; format: functional
# SiHa [5] = experiment: Synergistic antiproliferative activity against human SiHa cells assessed as combination index at 0.1 uM incubated for 72 hrs in presence of 1 uM cisplatin by CCK-8 assay; format: functional
# SiHa [6] = experiment: Induction of cell cycle arrest in human SiHa cells assessed as accumulation of cells at G1 pahse at 10 uM incubated after 48 hrs by PI staining based flow cytometry (reference value: 83.90 %); format: functional
# SiHa [7] = experiment: Induction of cell cycle arrest in human SiHa cells assessed as accumulation of cells at G2/M pahse at 2.5 uM incubated after 48 hrs by PI staining based flow cytometry (reference value: 7.37 %); format: functional
# [8] = biological target: T1, Protein cereblon/Heat shock protein HSP 90-alpha/Heat shock protein HSP 90-beta (Homo sapiens) (UniProt P07900+P08238+Q96SW2); experiment: Protac activity at CRBN/Hsp90 in human SiHa cells assessed as induction of Hsp90 degradation at 1 uM incubated for 8 to 10 hrs by Western blot analysis; format: cell-based; conditions: time 8-10 hrs
# SiHa [9] = experiment: Synergistic antiproliferative activity against human SiHa cells assessed as combination index at 0.75 uM incubated for 72 hrs in presence of 0.01 uM cisplatin by CCK-8 assay; format: functional
# SiHa [10] = experiment: Synergistic antiproliferative activity against human SiHa cells assessed as combination index at 0.5 uM incubated for 72 hrs in presence of 10 uM cisplatin by CCK-8 assay; format: functional
# SiHa [11] = experiment: Induction of cell cycle arrest in human SiHa cells assessed as accumulation of cells at G2/M pahse at 10 uM incubated after 48 hrs by PI staining based flow cytometry (reference value: 7.37 %); format: functional
# SiHa [12] = experiment: Synergistic antiproliferative activity against human SiHa cells assessed as combination index at 0.75 uM incubated for 72 hrs in presence of 1 uM cisplatin by CCK-8 assay; format: functional
# SiHa [13] = experiment: Induction of apoptosis in human SiHa cells assessed as early apoptotic cells at 2.5 uM incubated after 48 hrs by annexin V-FITC/PI staining based flow cytometry (reference value: 2.05 %); format: functional
# SiHa [14] = experiment: Antiproliferative activity against human SiHa cells assessed as inhibition of clone formation ability incubated for 14 days by crystal violet staining based microscopic analysis; format: functional, cell-based; conditions: dose 0.01-1 µM, time 14.0 day
# SiHa [15] = experiment: Synergistic antiproliferative activity against human SiHa cells assessed as combination index at 10 uM incubated for 72 hrs in presence of 10 uM cisplatin by CCK-8 assay; format: functional
# [16] = biological target: T1, Protein cereblon/Heat shock protein HSP 90-alpha/Heat shock protein HSP 90-beta (Homo sapiens); experiment: Protac activity at CRBN/Hsp90 in human SiHa cells assessed as decrease in AKT protein expression level incubated for 10 hrs by Western blot analysis; format: cell-based; conditions: dose 0.01-1 µM
# [17] = Toxicity in BALB/c nude mouse xenografted with human SiHa cells assessed as body weight weight loss at 2 mg/kg, ip; format: organism-based; conditions: in vivo
# [18] = biological target: T1, Protein cereblon/Heat shock protein HSP 90-alpha/Heat shock protein HSP 90-beta (Homo sapiens); experiment: Protac activity at CRBN/Hsp90 in human Ca-Ski cells assessed as induction of Hsp90 degradation (causing hook effect) at > 0.075 uM incubated for 10 hrs by Western blot analysis; format: cell-based
# SiHa [19] = experiment: Synergistic antiproliferative activity against human SiHa cells assessed as combination index at 0.5 uM incubated for 72 hrs in presence of 31.62 uM cisplatin by CCK-8 assay; format: functional
# SiHa [20] = experiment: Synergistic antiproliferative activity against human SiHa cells assessed as combination index at 0.05 uM incubated for 72 hrs in presence of 0.1 uM cisplatin by CCK-8 assay; format: functional
# SiHa [21] = experiment: Induction of cell cycle arrest in human SiHa cells assessed as accumulation of cells at G1 pahse at 0.05 uM incubated after 48 hrs by PI staining based flow cytometry (reference value: 83.90 %); format: functional
# SiHa [22] = experiment: Synergistic antiproliferative activity against human SiHa cells assessed as combination index at 0.05 uM incubated for 72 hrs in presence of 31.62 uM cisplatin by CCK-8 assay; format: functional
# SiHa [23] = experiment: Induction of cell cycle arrest in human SiHa cells assessed as accumulation of cells at G2/M pahse at 0.05 uM incubated after 48 hrs by PI staining based flow cytometry (reference value: 7.37 %); format: functional
# SiHa [24] = experiment: Antitumor activity against human SiHa cells xenografted in BALB/c nude mouse assessed as reduction in Ki67 protein expression at 2 mg/kg, ip by immunohistochemical analysis; format: functional, organism-based
# SiHa [25] = experiment: Synergistic antiproliferative activity against human SiHa cells assessed as combination index at 0.1 uM incubated for 72 hrs in presence of 0.32 uM cisplatin by CCK-8 assay; format: functional
# [26] = biological target: T1, Protein cereblon/Heat shock protein HSP 90-alpha/Heat shock protein HSP 90-beta (Homo sapiens); experiment: Protac activity at CRBN/Hsp90 in human Ca-Ski cells assessed as induction of Hsp90 degradation at 0.05 uM incubated for 10 hrs by Western blot analysis; format: cell-based
# SiHa [27] = experiment: Synergistic antiproliferative activity against human SiHa cells assessed as combination index at 0.05 uM incubated for 72 hrs in presence of 0.03 uM cisplatin by CCK-8 assay; format: functional
# SiHa [28] = experiment: Synergistic antiproliferative activity against human SiHa cells assessed as combination index at 10 uM incubated for 72 hrs in presence of 0.32 uM cisplatin by CCK-8 assay; format: functional
# SiHa [29] = experiment: Synergistic antiproliferative activity against human SiHa cells assessed as combination index at 0.1 uM incubated for 72 hrs in presence of 10 uM cisplatin by CCK-8 assay; format: functional
# SiHa [30] = experiment: Synergistic antiproliferative activity against human SiHa cells assessed as combination index at 1 uM incubated for 72 hrs in presence of 0.01 uM cisplatin by CCK-8 assay; format: functional
# SiHa [31] = experiment: Synergistic antitumor activity against human SiHa cells xenografted in BALB/c nude mouse assessed as tumor growth inhibition at 2 mg/kg, ip co-treated with cisplatin separately for every two days; format: functional, organism-based
# SiHa [32] = experiment: Synergistic antiproliferative activity against human SiHa cells assessed as combination index at 5 uM incubated for 72 hrs in presence of 1 uM cisplatin by CCK-8 assay; format: functional
# SiHa [33] = experiment: Synergistic antiproliferative activity against human SiHa cells assessed as combination index at 1 uM incubated for 72 hrs in presence of 0.1 uM cisplatin by CCK-8 assay; format: functional
# SiHa [34] = experiment: Synergistic antiproliferative activity against human SiHa cells assessed as combination index at 10 uM incubated for 72 hrs in presence of 0.03 uM cisplatin by CCK-8 assay; format: functional
# SiHa [35] = experiment: Synergistic antiproliferative activity against human SiHa cells assessed as combination index at 1 uM incubated for 72 hrs in presence of 1 uM cisplatin by CCK-8 assay; format: functional
compound,measurement,setting,value
CC1(C)CC(=O)c2c(C(F)(F)F)nn(-c3ccc(C(N)=O)c(N[C@H]4CC[C@H](OC(=O)CNC(=O)CCCCCCCNc5cccc6c5CN(C5CCC(=O)NC5=O)C6=O)CC4)c3)c2C1 (stereo not given in full),inhibition,[1],Active
same,CI,SiHa [2],1.02
same,CI,SiHa [3],2.06
same,CI,SiHa [4],0.95
same,CI,SiHa [5],0.8
same,Activity,SiHa [6],62.26%
same,Activity,SiHa [7],25.47%
same,Activity,[8],Active
same,CI,SiHa [9],0.2
same,CI,SiHa [10],0.17
same,Activity,SiHa [11],24.06%
same,CI,SiHa [12],0.17
same,Activity,SiHa [13],21.35%
same,inhibition,SiHa [14],Dose-Dependent Effect
same,CI,SiHa [15],1.1
same,Activity,[16],Dose-Dependent Effect
same,Activity,[17],Non-Toxic
same,Activity,[18],inactive
same,CI,SiHa [19],0.26
same,CI,SiHa [20],0.36
same,Activity,SiHa [21],78.92%
same,CI,SiHa [22],0.25
same,Activity,SiHa [23],9.88%
same,Activity,SiHa [24],Active
same,CI,SiHa [25],0.45
same,Activity,[26],Active
same,CI,SiHa [27],0.3
same,CI,SiHa [28],1.89
same,CI,SiHa [29],0.43
same,CI,SiHa [30],0.23
same,TGI,SiHa [31],Active
same,CI,SiHa [32],0.84
same,CI,SiHa [33],0.21
same,CI,SiHa [34],2.11
same,CI,SiHa [35],0.18
